Measurements from patent US20060147382A1, “Synergistic combination comprising roflumilast and an anticholinergic agent selected from ipratropium, oxitropium and tiotropium salts for the treatment of respiratory diseases” (Altana Pharma AG, priority 2003, published 2006).

Test system: methacholine-induced bronchoconstriction in guinea pigs
Assay: Inhibition of methacholine-induced bronchoconstriction in anaesthetized, mechanically ventilated guinea pigs
Assay type: in vivo, guinea pig
Conditions: for Effect on methacholine-induced bronchospasm (in words): versus placebo, ANOVA and Dunnett's test, ROFLUMILAST 4 mg/kg intratracheally, tiotropium-bromide 1 μg/kg i.v.
Description: Inhibition of Methacholine-Induced Bronchoconstriction in Guinea Pigs by ROFLUMILAST in combination with tiotropium-bromide
To assess the inhibitory effect of tiotropium-bromide, ROFLUMILAST, and the combination of both compounds on methacholine-induced bronchoconstriction in anaesthetized, mechanically ventilated guinea pigs.
Male Dunkin Hartley guinea pigs; body weight 350-450 g when performing the experiments.
75 min before methacholine-induced bronchospasm (at −75 min) animals were anaesthetized with urethane i.p. (1.2 g/kg). At −55 min for I.v. injections the right jugular vein and for ventilation the trachea was cannulated. At −45 min NaCl 0.9% or tiotropium-bromide was administered I.v. (1 μg/kg). At −30 min lactose (10 mg/kg) or ROFLUMILAST (4 mg/kg) mixed with lactose was administered intratracheally by a dry powder aerolizer. At −10 min pancuronium-bromide (1.5 mg/kg) was administered I.v. to abolish spontaneous breathing. Animals were mechanically ventilated with 60 breath/min and a tidal volume of 7 ml/kg. Dynamic lung compliance (COM) and airway conductance (CON) were calculated with the help of a computer system from airflow and ventilation pressure signals. At t=0 min methacholine was administered i.v. (60 μg/kg) to induce bronchoconstriction.
COM and CON were determined up to 120 s after methacholine-induced bronchospasm. AUCs for 0 to 120s were determined. Inhibition was calculated based on the AUC data. Data are shown as mean ±SEM. Results were taken to be significant if p<0.05 versus placebo (ANOVA and Dunnett's multiple comparison test)

[1] = male Dunkin Hartley guinea pigs, methacholine 60 μg/kg i.v., ROFLUMILAST 4 mg/kg intratracheally at -30 min, tiotropium-bromide 1 μg/kg i.v. at -45 min

SMILES | Inhibition of methacholine-induced airway conductance (CON) decrease, based on AUC 0 to 120 s [1] [%] | Inhibition of methacholine-induced dynamic lung compliance (COM) decrease, based on AUC 0 to 120 s [1] [%] | Effect on methacholine-induced bronchospasm (in words)
C[N+]1(C)[C@@H]2C[C@@H](OC(=O)C(O)(c3cccs3)c3cccs3)C[C@H]1[C@@H]1O[C@@H]12 [tiotropium-bromide] | 5.9 | 12 | no significant effect
O=C(Nc1c(Cl)cncc1Cl)c1ccc(OC(F)F)c(OCC2CC2)c1 [ROFLUMILAST, 3-cyclopropylmethoxy-4-difluoromethoxy-N-(3,5-dichloropyrid-4-yl)benzamide] | 5.6 | – | no significant effect
